Test results from PubChem BioAssay (NCI).
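Protocol summary: plate cells (96-well), add compound at 5 concentrations, incubate 48 h, interpolate endpoints linearly. TGI is the concentration that stops growth completely.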 Where a SMILES comes first, the peptide text is derived from it. The star is where a group is joined. Boc = CC(C)(C)OC(=O)*

Columns and labels:
Test in all cases: NCI-60 cell line screen, 48 h
786-0 renal = test system: 786-0 renal
ACHN renal = test system: ACHN renal
DU-145 prostate = test system: DU-145 prostate
LOX IMVI melanoma = test system: LOX IMVI melanoma
MCF7 breast = test system: MCF7 breast
PC-3 prostate = test system: PC-3 prostate
RPMI-8226 leukemia = test system: RPMI-8226 leukemia
SF-295 CNS = test system: SF-295 CNS
SK-MEL-28 melanoma = test system: SK-MEL-28 melanoma
SW-620 colon = test system: SW-620 colon

SMILES	TGI (786-0 renal) [µM]	TGI (ACHN renal) [µM]	TGI (DU-145 prostate) [µM]	TGI (LOX IMVI melanoma) [µM]	TGI (MCF7 breast) [µM]	TGI (PC-3 prostate) [µM]	TGI (RPMI-8226 leukemia) [µM]	TGI (SF-295 CNS) [µM]	TGI (SK-MEL-28 melanoma) [µM]	TGI (SW-620 colon) [µM]
O=c1c2c3c(sc2nc2n1N=CN(c1ccccc1)C2)CCCC3	> 100	> 100	> 100	> 100	> 100	> 100	> 100	> 100	> 100	> 100
CC(=O)OCC1OC(N2C(=O)NC(=O)C3C=C4CCCCC4=CC32)CC1OC(C)=O (stereo not given)	> 100	> 100	> 100	> 100	> 100	> 100	> 100	> 100	> 100	> 100
COC(=O)Nc1nc2ccc(S(=O)(=O)Nc3ccccn3)cc2[nH]1	> 100	> 100	> 100	> 100	> 100	> 100	40.6	> 100	56.2	66.6
COc1ccccc1NC(=S)N=Nc1c(O)[nH]c2ccccc12	> 100	> 100	13.7	> 100	> 100	> 100	> 100	> 100	23.6	> 100
Cc1nnc(N)nc1/C=C\c1ccc(Cl)cc1Cl	> 100	> 100	> 100	> 100	> 100	> 100	> 100	53.8	> 100	51.3
COc1cc(C2c3cc4c(cc3OC(NNC(N)=O)C2C)OCO4)cc(OC)c1OC (stereo not given)	> 100	> 62.2	> 100	> 100	> 53.8	> 100	> 58.1	0.425	> 100	> 100
O=C1c2cc(I)ccc2N2CCN=C2N1Cc1ccccc1	> 100	> 100	> 100	> 100	> 100	> 100	> 100	> 100	> 100	> 100
CCC(=O)Nc1cccc(N=Cc2ccc(OC(=O)/C=C\c3ccccc3)cc2)c1	> 75	> 75	> 75	> 75	> 75	> 75	> 75	> 75	> 75	> 75
C=C(C)[C@@H](O)[C@H](O)C[C@H](C)C1CC[C@]2(C)C1=CC[C@@H]1[C@@]3(C)CC[C@@H](OC(C)=O)C(C)(C)[C@@H]3C[C@@H](OC3OC(COC(C)=O)C(O)C(O)C3O)[C@]12C (stereo not given in full)	11.4	6.36	11.1	3.31	8.82	6.59	4.43	4.69	6.08	12.3
O[C@@H]1C[C@H](Cl)c2c(Cl)sc(Cl)c21	> 100	> 100	> 100	> 100	> 100	> 100	> 100	> 100	> 100	> 100
O=C1/C(=C/c2ccc(O)cc2)CCCC1CN1CCCCC1 (stereo not given)	2.38	3.11	16.6	3.09	6.49	10	> 100	29.9	10.6	3.8
COC(=O)C(Cc1ccccc1)NC(=O)C(CS)NC(=O)OC(C)(C)C (stereo not drawn) (Boc-Cys-Phe-OMe; configuration not given here)	> 100	> 100	> 100	> 100	> 100	> 100	> 100	> 100	> 100	> 100
O=c1[nH]c(=O)c2ncn(-c3ccc([N+](=O)[O-])cn3)c2[nH]1	> 100	> 100	> 100	> 100	> 100	> 100	> 100	> 100	> 100	> 100
COC(C/C(=C/CO[Si](C(C)C)(C(C)C)C(C)C)C(=O)N(C(=O)OC(C)(C)C)c1ccccc1I)OC	> 100	> 100	> 100	49.8	41.2	77.4	> 100	41	> 100	> 100
Clc1ccc(CCNC2(c3cc4ccccc4s3)CCCCC2)cc1Cl	36.8	63.3	> 100	35.6	33.5	> 100	32.1	84.3	87.2	> 100
CCOC(=O)/C=C(/C(=O)OCC)n1cc(C)c(=O)n(Cc2cnnn2COCCOC(C)=O)c1=O	22.5	16.5	> 52.8	32	36	37.7	23.8	> 100	47.5	> 55.6

SMILES	TGI (786-0 renal) [µM]	TGI (ACHN renal) [µM]	TGI (DU-145 prostate) [µM]	TGI (LOX IMVI melanoma) [µM]	TGI (MCF7 breast) [µM]	TGI (PC-3 prostate) [µM]	TGI (RPMI-8226 leukemia) [µM]	TGI (SF-295 CNS) [µM]	TGI (SK-MEL-28 melanoma) [µM]	TGI (SW-620 colon) [µM]
Cc1cc2nc3c(C#N)c4c(c(Nc5ccc(F)cc5)n3c2cc1C)CCC4	> 100	> 100	> 100	> 100	> 100	> 100	> 100	> 100	> 100	> 100
O=c1[nH]c2ccccc2c(O)c1Cc1ccccc1	> 100	> 100	> 100	> 100	> 100	> 100	> 100	> 100	> 100	> 100
Nn1c(Nc2ccc(S(N)(=O)=O)cc2)nnc(/C=C/c2c(O)ccc3ccccc23)c1=O	66.8	> 100	91.2	27.1	43	> 100	26.7	96.8	53.5	45.3
Cc1ccc(S(=O)(=O)N2CCC[C@@H]2C(=O)O[C@@H]2CCC3CC=CC32)cc1 (stereo not given in full)	55.4	> 100	> 100	38.9	> 100	69.6	61.3	> 100	> 100	> 100
N[C@H]1c2c(Br)sc(Br)c2C(=O)[C@H]1O	34.5	> 64.6	39.4	10.6	34.8	> 75.1	57.4	51.1	26.7	25.8
COC(=O)CNC(=O)C(Cc1ccccc1)NC(=O)c1ccc(-c2ccc(Cl)cc2Cl)o1 (stereo not given)	38.7	66.5	> 100	69	62.1	> 100	51.9	64.3	> 100	> 100
N#Cc1c(N)oc(-c2ccc([N+](=O)[O-])cc2)c1C#N	> 100	72.4	59.3	> 100	> 100	56.9	> 100	55.3	> 100	> 100
COC(=O)CN(CC(=O)NCCCBr)C1CCCCC1N(CC(=O)OC)CC(=O)OC (stereo not given)	> 100	> 100	> 100	> 100	> 100	> 100	> 100	> 100	> 100	> 100
COc1cc(C2c3cc4c(cc3OC(NNc3ccccc3)C2C)OCO4)cc(OC)c1OC (stereo not given)	12.8	27.5	> 31.2	> 37.8	> 35.7	> 56.3	31.8	5.11	> 100	> 100
Nc1nc(Cl)cc(OCC2(CO)CCCC2)n1	> 100	> 100	> 100	> 100	> 100	> 100	> 100	> 100	> 100	> 100
Cc1ncc([N+](=O)[O-])n1CC[N+](C)([O-])CCCCn1ccnc1[N+](=O)[O-] (stereo not given)	> 100	> 100	> 100	> 100	> 100	> 100	> 100	> 100	> 100	> 100
COC(=O)c1c(O)ccc2c1c1cc3ccccc3cc1n2Cc1cc(OC)cc(OC)c1	> 100	> 100	59.1	> 100	> 100	> 32.6	> 26.3	7.18	> 100	> 100
Oc1c(CN2CCCC2)ccc2cccnc12	> 100	59.5	> 100	60.5	> 100	> 100	48.2	> 100	> 100	> 100
O=C(CCBr)N1CCN(C(=O)CCBr)CC1	191	316	496	165	215	500	394	212	252	218
CC(C)(C)NC1=NC(C(F)(F)F)(C(F)(F)F)NC(=O)N1	> 100	> 100	> 100	> 100	> 100	> 100	> 100	> 100	> 100	> 100
COc1cccc2c1NC(=O)Cc1c-2[nH]c2ccccc12	> 100	> 100	> 100	> 100	> 100	> 100	> 100	> 100	> 100	> 100
